# Patent publication USRE39125E1, “Swallowing-assistive drink” (Ryukakusan Co. LTD, priority 2000, dated 2006)
# Assay: Fluoroscopic video-radiography of taking a barium-filled No. 2 capsule, mouth to stomach
# Format: in vivo
# Conditions: patient with difficulty in swallowing; barium-filled No. 2 capsule with about 20 ml of drink
# Method: First, the purpose of this test was explained to a patient (the person) who had difficulty in swallowing when taking medicines with water, and their consent was acquired.
# Next, barium powder was filled up in a No. 2 capsule and the capsule was used as a placebo. The placebo was taken by the patient with about 20 ml of the swallowing-assistive drink of the present invention, while fluoroscopic video-radiographs of the conditions of taking this medicine were taken by scanning from the mouth to the stomach of the patient. The image information obtained was put into a personal computer and the time-course changes were analyzed as still image data of two sheets a second.
smiles,measurement,value
O [water],time to move from the mouth to the stomach,about 18 sec
